Reference: US12552790B2, “Positive modulators of the muscarinic acetylcholine receptor M4” (Vanderbilt University, priority 2023, dated 2026)
pEC50, pIC50: −log10 of the molar value. Where two headings read alike, the source gives them in different places.

Legend:
Rat intrinsic clearance = format: in vitro ADME
Text: (§1) Compounds may be tested in in vitro assays to investigate both metabolism and pharmacokinetics. These assays may be performed according to known methods as generally described in the following references: Conde-Ceide et al. ACS Med. Chem. Lett. 2015, 6, 716-720; Morris et al. J. Med. Chem. 2014, 57, 10192-10197; and Bubser et al. ACS Chem. Neurosci. 2014, 5, 920-942.

P450 2D6 = P450 2D6 (Homo sapiens, UniProt P10635); assay: P450 2D6 inhibition; format: in vitro ADME
Chain of P450 2D6 (P10635 whole entry): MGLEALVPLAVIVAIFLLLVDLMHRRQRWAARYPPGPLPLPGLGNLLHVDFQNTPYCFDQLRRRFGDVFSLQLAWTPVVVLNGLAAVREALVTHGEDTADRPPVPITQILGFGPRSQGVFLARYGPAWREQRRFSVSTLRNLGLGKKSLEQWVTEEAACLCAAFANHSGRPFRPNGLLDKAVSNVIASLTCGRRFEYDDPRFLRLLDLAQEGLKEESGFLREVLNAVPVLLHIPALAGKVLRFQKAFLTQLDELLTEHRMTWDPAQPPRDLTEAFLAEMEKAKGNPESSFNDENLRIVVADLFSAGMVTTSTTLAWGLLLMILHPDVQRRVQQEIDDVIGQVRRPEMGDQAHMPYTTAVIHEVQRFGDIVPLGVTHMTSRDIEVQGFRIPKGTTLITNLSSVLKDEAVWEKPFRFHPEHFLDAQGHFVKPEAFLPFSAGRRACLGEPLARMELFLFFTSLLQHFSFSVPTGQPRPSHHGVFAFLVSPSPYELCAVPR
Text: as §1

[1] = Dog fraction unbound in plasma; format: in vitro ADME; details: read-out: Dog Fu (plasma)
Text: as §1

[2] = In vivo pharmacokinetic study in rat
[3] = Rat fraction unbound in brain; format: in vitro ADME; details: read-out: Rat Fu (brain)
Text: as §1

hM4 = target: T1, hM4 (Homo sapiens, UniProt P08173); assay: Cellular cAMP Gi HTRF assay in CHO cells, agonist and potentiator modes; format: cell-based
T1 construct: expressed in transfected cells; host or cells: CHO cells stably expressing human M4 (G418 selection only)
T1 sequence (P08173 1-479): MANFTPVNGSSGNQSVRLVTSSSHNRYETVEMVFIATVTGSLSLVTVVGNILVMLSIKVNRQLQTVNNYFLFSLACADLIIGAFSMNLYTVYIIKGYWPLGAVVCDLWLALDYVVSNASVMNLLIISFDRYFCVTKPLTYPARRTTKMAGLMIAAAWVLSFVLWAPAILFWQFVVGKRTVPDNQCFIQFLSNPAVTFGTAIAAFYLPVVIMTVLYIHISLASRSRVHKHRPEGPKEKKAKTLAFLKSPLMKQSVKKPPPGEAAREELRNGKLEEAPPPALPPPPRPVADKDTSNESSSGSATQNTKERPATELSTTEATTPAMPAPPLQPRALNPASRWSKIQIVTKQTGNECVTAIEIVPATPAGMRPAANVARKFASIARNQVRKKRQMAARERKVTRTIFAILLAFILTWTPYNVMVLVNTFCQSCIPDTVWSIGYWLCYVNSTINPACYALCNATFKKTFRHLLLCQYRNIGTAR
Text: Activation of the M4 receptor leads to the inhibition of cAMP production by coupling to Gi/o proteins. To measure the level of cAMP inhibition by M4 allosteric modulators, a Homogeneous Time-Resolved Fluorescence (HTRF®) cAMP assay was employed using CHO cells stably expressing human or rat M4 receptors. The HTRF cAMP assay is a Time-Resolved Resonance Energy Transfer (TR-FRET) competitive immunoassay. Endogenous intracellular cAMP generated by cells competes with Europium cryptate-labeled cAMP (Europium donor, emission […]) for the binding to a cAMP antibody labeled with d2 (d2-acceptor, emission […]). Thus, the fluorescence emission ratio (665 nm/620 nm) is inversely proportional to the cAMP amount in the cells. Compound-mediated M4 activation results in an increase in HTRF ratio (665 nm/620 nm), indicative of a decrease in intracellular cAMP level. To monitor agonist activity, compounds were added to the M4 cells in the presence of an EC80 concentration of forskolin (adenylyl cyclase activator) which induces a submaximal intracellular cAMP level. To assess potentiator activity, compounds were added to the M4 cells with an EC80 concentration of forskolin in the presence of an EC20 concentration of acetylcholine. This functional assay allows determination of the potency and efficacy of compounds directly activating or potentiating the Gi/o-coupled M4 receptor; representative data are shown in Table 3.
Functional agonist and potentiator activities of compounds were determined by measuring cAMP levels in Chinese Hamster Ovary (CHO) cells stably expressing human or rat M4 muscarinic receptors using an HTRF cAMP Gi/o kit. Cells were maintained in F12 medium containing 10% FBS, 20 mM HEPES, 1× Antibiotic/Antimycotic, and G418 (500 μg/ml) in 37° C. humidified incubators in the presence of 5% CO2. The day before assay, the cells were trypsinized and resuspended in plating medium (growth medium without G418). The cells were plated to white, solid, flat-bottomed, 384 well plates at densities of 4,000 and 6,000 cells/[…]/well, of human M4 and rat M4 cells, respectively. The cell plates were spun at 100×g for 1 min, then immediately placed in a 37° C. incubator in the presence of 5% CO2 overnight.
The next day, reagents were freshly diluted at a 2× concentration in assay buffer using F12 basal medium or stimulation buffer. All assay buffers contained 500 μM IBMX to block cAMP degradation. Activation of M4 by compounds was examined in cells stimulated with an EC80 concentration of forskolin to induce submaximal intracellular cAMP levels. Forskolin EC80 concentrations were determined from forskolin concentration response curves (CRCs) and ranged from 1.5 to 2.5 μM. Compounds (10 mM) were prepared in 100% DMSO and further serially diluted either 1:3 or 1:5 into a […] CRC in DMSO using a Bravo Liquid Handler in a 384 well microplate.
Agonist assay mode was used to assess the abilities of M4 compounds to directly activate M4 receptors in the absence of the agonist, acetylcholine. The 10-point serially diluted compounds, starting 30 μM as a final concentration, were transferred to a compound plate using an Echo plate reformat protocol. 2× assay buffer containing an EC80 concentration of forskolin concentration was added to the compound plate. Vehicle (1% DMSO) was added to the following control wells; baseline cAMP (no forskolin), forskolin max, and forskolin EC80. 10 μL/well of the prepared 2× assay buffer was immediately added to the cell plates using a Bravo 384 well tip liquid handler. The cell plates were immediately spun for 30 seconds at 100×g and incubated at 37° C. for 10 min with gentle shaking at 50 rpm. An acetylcholine CRC was also performed in the presence of an EC80 concentration of forskolin to determine the concentrations of acetylcholine inducing maximal (ECmax) and submaximal (EC20) cAMP inhibition in order to prepare for the subsequent potentiator mode assay. […]

[4] = Rat fraction unbound in plasma; format: in vitro ADME; details: read-out: Rat Fu (plasma)
Text: as §1

[5] = Human fraction unbound in plasma; format: in vitro ADME; details: read-out: Human Fu (plasma)
Text: as §1

P450 3A4 = P450 3A4 (Homo sapiens, UniProt P08684); assay: P450 3A4 inhibition; format: in vitro ADME
Chain of P450 3A4 (P08684 whole entry): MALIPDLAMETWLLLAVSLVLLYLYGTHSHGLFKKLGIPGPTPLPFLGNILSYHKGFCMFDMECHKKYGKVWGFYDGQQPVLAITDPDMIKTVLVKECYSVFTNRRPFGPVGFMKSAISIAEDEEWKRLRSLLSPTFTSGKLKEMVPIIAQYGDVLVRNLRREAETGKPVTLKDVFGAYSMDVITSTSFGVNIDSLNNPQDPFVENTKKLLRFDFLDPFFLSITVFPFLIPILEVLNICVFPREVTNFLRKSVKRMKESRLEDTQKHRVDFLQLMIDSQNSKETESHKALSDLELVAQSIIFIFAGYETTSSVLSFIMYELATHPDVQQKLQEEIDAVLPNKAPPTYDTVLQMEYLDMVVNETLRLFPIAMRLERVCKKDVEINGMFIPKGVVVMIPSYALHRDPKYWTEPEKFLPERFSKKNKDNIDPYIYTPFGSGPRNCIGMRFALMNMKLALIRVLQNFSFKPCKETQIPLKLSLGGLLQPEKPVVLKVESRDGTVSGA
Text: as §1

[6] = agonist mode, forskolin EC80, no acetylcholine
[7] = agonist mode, forskolin EC80, no acetylcholine, read-out: hM4_cAMP Activity Agonist EC50
[8] = potentiator mode, forskolin EC80 plus ACh EC20
[9] = potentiator mode, forskolin EC80 plus ACh EC20, read-out: hM4_cAMP Activity PAM EC50

CLint scaled (Rat intrinsic clearance) | pIC50 (P450 2D6) | fraction unbound [1] | Rat oral F ([2]; 3 mg/kg oral) | Kp ([2]; brain, read-out: Rat brain: plasma Kp) | Kp uu ([2]; brain, unbound, read-out: Rat brain: plasma Kp, uu) | clearance ([2]; plasma, read-out: Rat CLp) | half-life ([2]; plasma, read-out: Rat Elim. t1/2 (converted)) | Vd ([2]; plasma, read-out: Rat Vss) | fraction unbound [3] | hM4_cAMP Activity Agonist % ACh Max (hM4; [6]) | pEC50 (hM4; [7]) | hM4_cAMP Activity PAM % ACh Max (hM4; [8]) | pEC50 (hM4; [9]) | fraction unbound [4] | fraction unbound [5] | pIC50 (P450 3A4) | Compound
90 mL/min/kg | < 4.00 | 0.042 | >100% | 1.2 | 0.7 | 16.9 mL/min/kg | 1.4 h | 1.6 L/kg | 0.015 | 106 % ACh Max | 7.70 | 94 % ACh Max | 8.22 | 0.026 | 0.022 | < 4.00 | [2H]C1([2H])Oc2ccc(OC3CCN(c4nc5c(cc4C)C(=O)NC5)CC3)cc2OC1([2H])[2H] [Compound 3, 2-(4-((2,3-dihydrobenzo[b][1,4]dioxin-6-yl-2,2,3,3-d4)oxy)piperidin-1-yl)-3-methyl-6,7-dihydro-5H-pyrrolo[3,4-b]pyridin-5-one]
 |  |  |  |  |  |  |  |  |  | 89 % ACh Max | 7.80 | 70 % ACh Max | 8.52 |  |  |  | [2H]C1([2H])Oc2ccc(OC3CCN(c4nc5nn(C)c(=O)n5cc4C)CC3)cc2OC1([2H])[2H] [Compound A6, 7-(4-((2,3-dihydrobenzo[b][1,4]dioxin-6-yl-2,2,3,3-d4)oxy)piperidin-1-yl)-2,6-dimethyl-[1,2,4]triazolo[4,3-a]pyrimidin-3(2H)-one]
 |  |  |  |  |  |  |  |  |  | 105 % ACh Max | 8.15 | 82 % ACh Max | 8.70 |  |  |  | [2H]C1([2H])Oc2ccc(OC3CCN(c4nc5nn(C)c(=O)n5c(C)c4C)CC3)cc2OC1([2H])[2H] [Compound A10, 7-(4-((2,3-dihydrobenzo[b][1,4]dioxin-6-yl-2,2,3,3-d4)oxy)piperidin-1-yl)-2,5,6-trimethyl-[1,2,4]triazolo[4,3-a]pyrimidin-3(2H)-one]
